We go through 3 molecules from patent US5576334A, “Acylurea derivatives” (Zeneca Limited, priority 1993, dated 1996).

In assay [1] the test system is aggregation of human blood platelets. Briefly: test (a) modified, ex vivo after oral dosing to dogs. The conditions noted are these: 1 mg/kg. The class given is in vivo. As for the experimental part:
Test (a) may be modified so as to assess the effects of a test compound ex vivo on the aggregation of human blood platelets after administration of the test compound to a laboratory animal, such as a rat, rabbit, guinea pig, mouse or dog. For example, groups of four male, fasted Alderley Park Wistar rats are orally dosed with a test compound or appropriate vehicle, and at suitable time intervals (1, 3, 5 and 8 hours after dosing) animals are anaesthetised with fluothane and bled by heart puncture. Blood is collected into 3.2% citrate (1 part to 9 parts whole blood) and platelet poor plasma (ppp) prepared by centrifugation (4500×g for 10 minutes). […]
Equal volumes (125 μl) of rat ppp and human prp are mixed together, ADP added, and the whole incubated (37° C.) and stirred (900 rpm) in a BioData platelet aggregometer. Aggregation is induced with ADP and agonist EC50 values calculated for human prp/rat ppp mixtures from animals dosed with test compound or vehicle. A mean concentration ratio (concentration of ADP required to cause a 50% aggregation response in human prp/rat ppp mixtures from animals dosed with antagonist, divided by the concentration of ADP to cause 50% aggregation in human prp/rat ppp mixtures from animals dosed with vehicle) is calculated at each time point.

Assay [2] relates to ADP stimulated platelet aggregation in human, citrated, platelet-rich plasma. Briefly: test (a): inhibition of ADP-induced aggregation of human platelet-rich plasma (Born). The class given is cell-based. As to conditions: ADP as agonist. The source says: (i) aggregating human, citrated, platelet-rich plasma by addition of adenosine diphosphate (ADP) so as to generate a dose-response curve;
(ii) generating a dose-response curve for ADP stimulated platelet aggregation in the presence of increasing amounts of a test compound (generally in the range 10^-5 M to 10^-10 M); and
(iii) calculating a pA2 value indicating potency of platelet aggregation inhibition for the test compound, averaged over several concentrations, from the calculated 50% response value for ADP aggregation in the presence and absence of the test compound.

For assay [3], the target named is T1, purified human platelet fibrinogen receptor (GPIIb/IIIa) (Homo sapiens, UniProt P05106+P08514).
T1 construct: Glycoprotein IIb/IIIa is isolated from human platelet lysates; from tissue
T1 sequence (P08514 32-887 limits assumed): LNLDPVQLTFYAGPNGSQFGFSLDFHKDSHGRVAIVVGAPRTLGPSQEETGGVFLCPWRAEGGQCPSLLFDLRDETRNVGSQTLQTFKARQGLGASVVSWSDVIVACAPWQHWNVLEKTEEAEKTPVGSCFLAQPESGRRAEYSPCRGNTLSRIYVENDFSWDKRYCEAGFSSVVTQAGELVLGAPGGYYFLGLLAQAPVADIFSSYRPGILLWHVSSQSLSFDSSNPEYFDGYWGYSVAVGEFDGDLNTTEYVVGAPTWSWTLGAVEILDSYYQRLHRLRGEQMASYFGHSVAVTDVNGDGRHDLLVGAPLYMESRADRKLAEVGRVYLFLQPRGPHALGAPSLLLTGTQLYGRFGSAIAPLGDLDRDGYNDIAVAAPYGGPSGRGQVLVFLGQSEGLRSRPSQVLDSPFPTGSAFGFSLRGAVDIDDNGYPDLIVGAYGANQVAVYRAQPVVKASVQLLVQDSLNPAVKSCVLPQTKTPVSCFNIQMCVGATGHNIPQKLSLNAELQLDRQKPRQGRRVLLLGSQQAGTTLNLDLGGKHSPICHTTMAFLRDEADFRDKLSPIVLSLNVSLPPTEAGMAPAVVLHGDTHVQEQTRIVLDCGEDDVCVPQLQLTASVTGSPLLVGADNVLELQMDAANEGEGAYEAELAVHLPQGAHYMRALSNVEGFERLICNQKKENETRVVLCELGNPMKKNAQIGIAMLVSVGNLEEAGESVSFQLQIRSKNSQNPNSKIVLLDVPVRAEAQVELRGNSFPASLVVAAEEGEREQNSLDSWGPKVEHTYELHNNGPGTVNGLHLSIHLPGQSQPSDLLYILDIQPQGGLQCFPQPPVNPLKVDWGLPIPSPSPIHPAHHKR
T1 sequence (P08514 891-1039 limits assumed): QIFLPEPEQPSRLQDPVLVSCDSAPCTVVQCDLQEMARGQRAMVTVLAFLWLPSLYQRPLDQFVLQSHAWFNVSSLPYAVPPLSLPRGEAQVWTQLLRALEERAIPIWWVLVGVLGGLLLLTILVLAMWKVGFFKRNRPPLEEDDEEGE
T1 sequence (P05106 27-788): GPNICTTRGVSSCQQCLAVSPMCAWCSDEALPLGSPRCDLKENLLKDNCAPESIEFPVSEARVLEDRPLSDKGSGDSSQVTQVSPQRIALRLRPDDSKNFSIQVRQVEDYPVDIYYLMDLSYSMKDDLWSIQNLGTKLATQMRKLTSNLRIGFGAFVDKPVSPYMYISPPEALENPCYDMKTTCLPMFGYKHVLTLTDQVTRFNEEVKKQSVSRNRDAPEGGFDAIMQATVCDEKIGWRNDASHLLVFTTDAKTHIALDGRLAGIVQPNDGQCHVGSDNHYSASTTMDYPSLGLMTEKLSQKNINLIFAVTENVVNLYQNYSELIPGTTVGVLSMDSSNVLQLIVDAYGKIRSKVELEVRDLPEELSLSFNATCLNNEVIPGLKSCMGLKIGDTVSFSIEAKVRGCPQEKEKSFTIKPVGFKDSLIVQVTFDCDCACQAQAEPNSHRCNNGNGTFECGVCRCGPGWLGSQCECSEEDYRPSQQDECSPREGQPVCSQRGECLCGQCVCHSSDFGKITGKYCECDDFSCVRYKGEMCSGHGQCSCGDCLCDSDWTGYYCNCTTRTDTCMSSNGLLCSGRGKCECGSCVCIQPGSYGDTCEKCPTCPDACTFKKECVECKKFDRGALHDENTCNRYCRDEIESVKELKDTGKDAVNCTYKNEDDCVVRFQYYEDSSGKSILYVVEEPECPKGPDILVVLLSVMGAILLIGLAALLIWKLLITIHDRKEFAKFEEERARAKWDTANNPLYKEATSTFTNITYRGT
Briefly: test (b): GPIIb/IIIa ELISA, inhibition of biotinylated fibrinogen binding. The conditions noted are these: biotinylated fibrinogen 10 nM, read-out: pIC50 (-log(IC50)), inhibition of biotinylated fibrinogen binding in test (b) (converted). How it is done: (i) Preparation of human platelet lysates. Platelet rich plasma (PRP) is harvested by centrifugation (1000 rpm, 15 minutes) of whole blood anticoagulated with acid citrate dextrose (trisodium citrate 85 mM, citric acid 70 mM, d-glucose 110 mM) 1 part to 6 parts blood. Prostacyclin (PGI2, 1 μM) is added to the PRP before centrifugation (2400 rpm, 15 mins) and the resulting pellet is resuspended in modified Tyrodes' solution (NACl 130 mM, […], NaHCO3 12 mM, NaH2 PO4 0.5 mM, MgCl2 1 mM, […], Glucose 12 mM, HEPES 5 mM) containing bovine serum albumin 3.5 g/L, PGI2 1 μM and hirudin 0.5 U/ml. The platelet suspension is centrifuged (2400 rpm, 15 minutes) and the resultant pellet resuspended in 500 μl of lysis buffer (octyl glucoside 50 mM, HEPES 10 mM, NaCl 150 mM, CaCl2 1 mM, MgCl2 1 mM, PMSF 1 mM, NEM 10 mM, leupeptin 0.1 mM), agitated at 4° C. for 15 minutes then centrifuged at 24000 rpm, 15 minutes. The supernatant is stored at 4° C. and the pellet re-suspended in 500 μl of lysis buffer. […]
(iii) GPIIb/IIIa ELISA 96 well microtitre plates are coated with 100 μl purified human platelet fibrinogen receptor (GPIIb/IIIa) diluted in coating buffer (Tris-HCl 20 mM, NaCl 150 mM, CaCl2 1 mM, pH7.4) and left overnight at 4° C. […] Colour is allowed to develop for 10-15 minutes before optical densities are read at 650 nm. […]

`CC(C)(C)OC(=O)COc1ccc(NC(=O)NC(=O)c2ccc(C(=N)N)cc2)cc1` [Example 2, t-Butyl 4-[3-(4-amidinobenzoyl)ureido]phenoxyacetate]: the “duration of activity when dosed orally” value in assay [1] is given as “up to 8 hours”. Consider `COC(=O)COc1ccc(NC(=O)NC(=O)c2ccc(C(=N)N)cc2)cc1` [Example 1, Methyl 4-[3-(4-amidinobenzoyl)ureido]phenoxyacetate], for which, in assay [2], the “pA2, potency of platelet aggregation inhibition in test (a)” value is on record as 7.6. For the same molecule, the IC50 in assay [3] is 316 nM. The like results for `N=C(N)c1ccc(C(=O)NC(=O)Nc2ccc(OCC(=O)O)cc2)cc1` [Example 3, 4-[3-(4-Amidinobenzoyl)ureido]phenoxyacetic acid] were, in that order, 8.4 and 2.51 nM.
